Data: patent US20090227521A1, “USE OF COMPOUNDS IN THE TREATMENT OF ISCHEMIA AND NEURODEGENERATION” (priority 2006, published 2009)
Values joined by “and” are separate entries in the source; they are usually repeats but may differ in a detail not shown here. Equal values may be shown once. *: point of attachment. Cbz = O=C(OCc1ccccc1)*

How the values were obtained:
[1] = test system: EL-4 cells; experiment: Western blotting of TPPII, proteasome alpha-3 and p53 in stressed EL-4 cells; type: cell-based, mouse
Description: (§1) Cells and Culture Conditions. EL-4 is a Benzpyrene-induced lymphoma cell line derived from the C57BI/6 mouse strain. EL-4.wt and EL-4.TPPII^i are EL-4 cells transfected with the pSUPER vector (Brummelkamp, T R, Bernards, R, Agami, R. A system for stable expression of short interfering RNAs in mammalian cells. Science 2002; 296:550-3), empty versus containing the siRNA directed against TPPII. HeLa cells are human cervical carcinoma cells. For induction of stress, cells were starved by growth in 50%-75% Phosphate Buffered Saline (PBS) or gamma-irradiated 250-2000 Rad's; and incubated at 37° C. and 5.3% CO2. Our flow cytometric data represent live cells as determined by flow cytometric gating with Propidium Iodide (PI). For generation of stable transfectants, 5×10^6 cells were washed in PBS, then resuspended into 500 micro-I of PBS in a Bio-Rad gene-pulser and pulsed with 10 micro-g DNA and 250 V at 960 micro-F; and selected by resistance to G418. UbGV76-GFP is a ubiquitin-fusion construct that creates a rapidly degraded GFP molecule for monitoring 26S proteasome activity in live cells through flow cytometry (Dantuma, N. P, Lindsten, K., Glas, R., Jellne, M., and Masucci, M. G. 2000. Short-lived green fluorescent proteins for quantifying ubiquitin/proteasome-dependent proteolysis in living cells. Nat. Biotechnol. 18:538-43). Ub-R-GFP is a similar vector that also encodes a highly unstable GFP molecule degraded through the ubiquitin-proteasome pathway. […]
Protein Purification, Peptidase Assays and Analysis of DNA Fragmentation. […] Cleavage activity was measured by emission at 460 nm in a LS50B Luminescence Spectrometer (Perkin Elmer, Boston, Mass.). […]
Antibodies and Antisera. The following molecules were detected by the antibodies specified: GFP by rabbit anti-GFP serum (Molecular Probes Europe, Breda, The Netherlands); 19S proteasomal complexes by anti-Rpt6 (19S base ATPase subunit), 20S proteasomal complexes by (Affinity, Exeter, UK); For detection of TPPII we used chicken anti-TPPII serum (Immunsystem, Uppsala, Sweden). […]

[2] = test system: HeLa.UbGV76-GFP cells; experiment: GFP reporter substrate fluorescence in HeLa.UbGV76-GFP cells (flow cytometry); type: cell-based, human; details: live cells, proteasomal inhibitor treatment
Description: as §1, with “18:538-43).” for “18:538-43). Ub-R-GFP is a similar vector that also encodes a highly unstable GFP molecule degraded through the ubiquitin-proteasome pathway.”
(§2) Flow Cytometry. Fluorescence was quantified by a FACScalibur. […]

[3] = test system: EL-4.Ub-R-GFP-Q112 cells; experiment: Ub-R-GFP-Q112 poly-Glutamine reporter substrate degradation in stably transfected EL-4 cells (flow cytometry); type: cell-based, mouse; details: for Ub-R-GFP-Q112 substrate level: up to 72 hours, serum-free AIM-V medium
Description: Cells and Culture Conditions. EL-4 is a Benzpyrene-induced lymphoma cell line derived from the C57BI/6 mouse strain. EL-4.wt and EL-4.TPPII^i are EL-4 cells transfected with the pSUPER vector (Brummelkamp, T R, Bernards, R, Agami, R. A system for stable expression of short interfering RNAs in mammalian cells. Science 2002; 296:550-3), empty versus containing the siRNA directed against TPPII. HeLa cells are human cervical carcinoma cells. For induction of stress, cells were starved by growth in 50%-75% Phosphate Buffered Saline (PBS) or gamma-irradiated 250-2000 Rad's; and incubated at 37° C. and 5.3% CO2. Our flow cytometric data represent live cells as determined by flow cytometric gating with Propidium Iodide (PI). For generation of stable transfectants, 5×10^6 cells were washed in PBS, then resuspended into 500 micro-I of PBS in a Bio-Rad gene-pulser and pulsed with 10 micro-g DNA and 250 V at 960 micro-F; and selected by resistance to G418. UbGV76-GFP is a ubiquitin-fusion construct that creates a rapidly degraded GFP molecule for monitoring 26S proteasome activity in live cells through flow cytometry (Dantuma, N. P, Lindsten, K., Glas, R., Jellne, M., and Masucci, M. G. 2000. Short-lived green fluorescent proteins for quantifying ubiquitin/proteasome-dependent proteolysis in living cells. Nat. Biotechnol. 18:538-43). Ub-R-GFP is a similar vector that also encodes a highly unstable GFP molecule degraded through the ubiquitin-proteasome pathway. Ub-R-GFP-Q112 is the same substrate but contains an extended C-terminal with 112 glutamines (Verhoef, L. G., Lindsten, K., Masucci, M. G. and Dantuma, N. P. 2002. Aggregate formation inhibits proteasomal degradation of polyglutamine proteins. Hum Mol. Genet. 11:2689-700).
Flow Cytometry. Fluorescence was quantified by a FACScalibur. Flow cytometric cell sorting of live cells was performed by incubation of cells for 5 minutes with 2 micro-g/ml of Propidium Iodide (PI) and subsequent sorting into PI^+ and PI^− populations with a FACSvantage. […]

[4] = test system: EL-4.Ub-R-GFP cells; experiment: GFP reporter substrate fluorescence in EL-4.Ub-R-GFP cells (flow cytometry); type: cell-based, mouse; details: live cells, proteasomal inhibitor treatment
Description: as §1, with “18:538-43).” for “18:538-43). Ub-R-GFP is a similar vector that also encodes a highly unstable GFP molecule degraded through the ubiquitin-proteasome pathway.”
as §2

[5] = test system: Subtilisin; details: bacterial homologue of eukaryotic TPP II; cited from earlier work
[6] = target: T1, TPP II (Mus musculus, UniProt Q64514); experiment: Inhibition of cleavage of AAF-AMC by enriched TPP II (peptidase assay); type: biochemical; details: for cleavage of AAF-AMC, mean: mean of three
T1 construct: 1 ug of high molecular weight protein was used as enzyme in peptidase assays; endogenous in cells
T1 sequence (Q64514 2-1262 limits assumed): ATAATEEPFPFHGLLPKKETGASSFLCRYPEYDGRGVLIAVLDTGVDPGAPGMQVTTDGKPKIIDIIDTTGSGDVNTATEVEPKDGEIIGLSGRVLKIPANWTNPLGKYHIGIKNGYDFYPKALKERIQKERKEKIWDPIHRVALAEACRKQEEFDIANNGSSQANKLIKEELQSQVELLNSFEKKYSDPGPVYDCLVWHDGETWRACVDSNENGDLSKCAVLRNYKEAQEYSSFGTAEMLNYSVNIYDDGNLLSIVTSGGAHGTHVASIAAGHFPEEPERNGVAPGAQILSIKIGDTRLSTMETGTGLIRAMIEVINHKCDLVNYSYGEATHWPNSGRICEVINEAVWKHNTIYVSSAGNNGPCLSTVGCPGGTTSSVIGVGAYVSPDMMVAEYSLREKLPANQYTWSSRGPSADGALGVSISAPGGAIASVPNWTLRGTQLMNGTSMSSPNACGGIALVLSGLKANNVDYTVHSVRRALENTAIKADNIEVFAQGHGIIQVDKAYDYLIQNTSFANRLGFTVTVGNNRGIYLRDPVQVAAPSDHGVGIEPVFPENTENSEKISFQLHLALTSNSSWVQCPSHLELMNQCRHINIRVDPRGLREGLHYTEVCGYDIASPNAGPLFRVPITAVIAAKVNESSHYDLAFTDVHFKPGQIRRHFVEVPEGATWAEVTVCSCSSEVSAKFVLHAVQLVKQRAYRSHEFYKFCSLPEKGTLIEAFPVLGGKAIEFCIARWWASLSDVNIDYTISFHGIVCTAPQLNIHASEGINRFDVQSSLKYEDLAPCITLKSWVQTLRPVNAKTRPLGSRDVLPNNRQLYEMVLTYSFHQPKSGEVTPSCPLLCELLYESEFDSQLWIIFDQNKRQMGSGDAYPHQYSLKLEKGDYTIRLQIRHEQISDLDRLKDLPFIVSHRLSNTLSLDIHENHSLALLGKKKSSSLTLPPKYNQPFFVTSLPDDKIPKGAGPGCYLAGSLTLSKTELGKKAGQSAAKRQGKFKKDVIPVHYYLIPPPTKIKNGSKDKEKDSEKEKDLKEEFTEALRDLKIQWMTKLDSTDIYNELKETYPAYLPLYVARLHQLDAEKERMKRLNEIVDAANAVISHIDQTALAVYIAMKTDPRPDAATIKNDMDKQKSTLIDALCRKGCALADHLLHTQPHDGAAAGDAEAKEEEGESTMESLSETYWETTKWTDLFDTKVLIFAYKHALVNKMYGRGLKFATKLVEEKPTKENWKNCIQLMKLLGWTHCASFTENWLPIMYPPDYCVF
Experimental: It is not necessary to achieve a particularly high level of purification, and conventional simple techniques can be used to obtain TPP II of sufficient quality to use in a screening method. In one non-limiting example of purification of TPP II, 100×10^6 cells (such as EL-4 cells) were sedimented and lysed by vortexing in glass beads and homogenisation buffer (50 mM Tris Base pH 7.5, 250 mM Sucrose, 5 mM MgCl2, 1 mM DTT). Cellular lysates were subjected to differential centrifugation; first the cellular homogenate was centrifuged at 14,000 rpm for 15 min, and then the supernatant was transferred to ultra-centrifugation tubes. Next the sample was ultra-centrifugated at 100,000×g for 1 hour, and the supernatant (denoted as cytosol in most biochemical literature) was subjected to 100,000×g centrifugation for 5 hours, which sedimented high molecular weight cytosolic proteins/protein complexes. The resulting pellet dissolved in 50 mM Tris Base pH 7.5, 30% Glycerol, 5 mM MgCl2, and 1 mM DTT, and 1 ug of high molecular weight protein was used as enzyme in peptidase assays.
It is possible to test the activity of TPP II using for example the substrate AAF-AMC (Sigma, St. Louis, Mo.). This may for example be used at 100 uM concentration in 100 ul of test buffer composed of 50 mM Tri Base pH 7.5, 5 mM MgCl2 and 1 mM DTT. It is possible to stop reactions using dilution with 900 ul 1% SDS solution. Cleavage activity may be measured for example by emission at 460 nm in a LS50B Luminescence Spectrometer (Perkin Elmer, Boston, Mass.).
Protein Purification, Peptidase Assays and Analysis of DNA Fragmentation. 100×10^6 cells were sedimented and lysed by vortexing in glass beads and homogenisation buffer (50 mM Tris Base pH 7.5, 250 mM Sucrose, 5 mM MgCl2, 1 mM DTT). Cellular lysates were submitted to differential centrifugation where a supernatant from a 1 hour centrifugation at 100,000×g (cytosol) was submitted to 100,000×g centrifugation for 3-5 hours, which sedimented high molecular weight cytosolic proteins/protein complexes. The resulting pellet dissolved in 50 mM Tris Base pH 7.5, 30% Glycerol, 5 mM MgCl2, and 1 mM DTT, and 1 micro-g of high molecular weight protein was used as enzyme in peptidase assays or in Western blotting for TPP II expression. To test the activity of TPP II we used the substrate AAF-AMC (Sigma, St. Louis, Mo.), at 100 micro-M concentration in 100 micro-I of test buffer composed of 50 mM Tri Base pH 7.5, 5 mM MgCl2 and 1 mM DTT. Cleavage activity was measured by emission at 460 nm in a LS50B Luminescence Spectrometer (Perkin Elmer, Boston, Mass.). For analysis of DNA fragmentation cells were seeded in 12-well plates at 10^6 cells/ml and exposed to 25 micro-M etoposide, a DNA topoisomerase II inhibitor commonly used as an apoptosis-inducing agent, to starvation (50% PBS). Cells were seeded at 10^6 cells/ml in 12-well plates and incubated for the indicated times, usually 18-24 hours. DNA from EL-4 control and adapted cells was purified by standard chloroform extraction, and 2.5 micro-g of DNA was loaded on 1.8% agarose gel for detection of DNA from apoptotic cells.
TPP II protein was enriched, and then a TPP II-preferred fluorogenic substrate AAF-AMC was used. 100×10^6 cells were sedimented and lysed by vortexing in glass beads and homogenisation buffer (50 mM Tris Base pH 7.5, 250 mM Sucrose, 5 mM MgCl2, 1 mM DTT). Cellular lysates were subjected to differential centrifugation; first the cellular homogenate was centrifuged at 14,000 rpm for 15 min, and then the supernatant was transferred to ultra-centrifugation tubes. Next the sample was ultra-centrifugated at 100,000×g for 1 hour, and the supernatant (denoted as cytosol in most biochemical literature) was subjected to 100,000×g centrifugation for 5 hours, which sedimented high molecular weight cytosolic proteins/protein complexes. […]

[7] = test system: HeLa cells; experiment: Nuclear localization of proteasomes in starved HeLa cells (immunohistochemistry); type: cell-based, human; details: starvation, 100 micro-M
Description: as §1, with “18:538-43).” for “18:538-43). Ub-R-GFP is a similar vector that also encodes a highly unstable GFP molecule degraded through the ubiquitin-proteasome pathway.”

[8] = test system: EL-4 cells; experiment: Nuclear localization of proteasomes in starved EL-4 cells (immunohistochemistry); type: cell-based, mouse; details: starvation, 100 micro-M
Description: as §1, with “18:538-43).” for “18:538-43). Ub-R-GFP is a similar vector that also encodes a highly unstable GFP molecule degraded through the ubiquitin-proteasome pathway.”

Compound: CC(C)C[C@@H](/C=C/S(C)(=O)=O)NC(=O)[C@H](CC(C)C)NC(=O)[C@H](CC(C)C)NC(=O)Cc1cc(I)c(O)c([N+](=O)[O-])c1 [NLVS, 4-hydroxy-5-iodo-3-nitrophenylacetyl-Leu-Leu-Leu-vinyl sulphone]
- rapid TPPII down regulation during wortmannin treatment ([1]; starved EL-4 cells, with 1 micro-M wortmannin): prevented
- steady state levels of GFP-fluorescence [2]: strong increase
- accumulation of Ub-R-GFP-Q112 substrate not degraded ([3]; treatment with NLVS): further increased accumulation
- steady state levels of GFP-fluorescence [4]: strong increase

Compound: Cbz-Gly-Leu-Ala-OH [Z-GLA-OH]
- TPPII expression ([1]; gamma-irradiated (500 Rad) EL-4.wt cells, 25 micro-M): strong reduction
- inhibition of Subtilisin [5]: inhibit
- cleavage of AAF-AMC, single determination ([6]; compound at 1 nM): 32.54 fluorometric units and 32.61 fluorometric units and 33.41 fluorometric units
- cleavage of AAF-AMC, mean ([6]; compound at 1 nM): 32.85 fluorometric units
- cleavage of AAF-AMC, single determination ([6]; compound at 10 nM): 21.74 fluorometric units and 21.93 fluorometric units and 24.44 fluorometric units
- cleavage of AAF-AMC, mean ([6]; compound at 10 nM): 22.70 fluorometric units
- cleavage of AAF-AMC, single determination ([6]; compound at 100 nM): 14.43 fluorometric units and 14.26 fluorometric units and 14.37 fluorometric units
- cleavage of AAF-AMC, mean ([6]; compound at 100 nM): 14.35 fluorometric units
- cleavage of AAF-AMC, single determination ([6]; compound at 1 uM): 11.43 fluorometric units and 11.9 fluorometric units and 11.46 fluorometric units
- cleavage of AAF-AMC, mean ([6]; compound at 1 uM): 11.60 fluorometric units
- cleavage of AAF-AMC, single determination ([6]; compound at 10 uM): 6.47 fluorometric units and 7.66 fluorometric units and 7.49 fluorometric units
- cleavage of AAF-AMC, mean ([6]; compound at 10 uM): 7.21 fluorometric units
- cleavage of AAF-AMC, single determination ([6]; compound at 100 uM, arbitrary but relative units, lower = more inhibition): 1.14 fluorometric units and 1.44 fluorometric units and 1.55 fluorometric units
- cleavage of AAF-AMC, mean ([6]; compound at 100 uM): 1.38 fluorometric units
- Ub-R-GFP-Q112 substrate level ([3]; 25-microM): gradual decline

Compound: CCCCNC(=O)[C@@H]1Cc2ccccc2N1C(=O)[C@@H](N)CC [Butabindide]
- stabilization of p53 ([1]; gamma-irradiated (500 Rad) EL-4.wt cells, 100 micro-M from 2 hours before onset): prevent
- nuclear localization of proteasomes [7]: inhibited nuclear localization of proteasomes
- Ub-R-GFP-Q112 substrate level ([3]; 100 micro-M): gradual decline
- nuclear localization of proteasomes [8]: inhibited nuclear localization of proteasomes
